Assay results reported in patent publication USRE47689E1, “Compounds for treating spinal muscular atrophy” (PTC Therapeutics, Inc., priority 2011, dated 2019).

Tests used:
[1] = system: full length and Δ7 SMN2 mRNAs; assay: Endogenous SMN2 mRNA RT-qPCR splicing assay in cultured cells; assay type: cell-based, human; settings: GM03813 Type 1 SMA patient fibroblasts, increasing concentrations, 24 hrs
Method: The reverse transcription-quantitative PCR-based (RT-qPCR) assay is used to quantify the levels of the full length and Δ7 SMN2 mRNAs in primary cells and cell lines containing the SMN2 gene treated with a test compound.
Protocol. GM03813 SMA patient cells (5,000 cells/well) are seeded in 200 μL, of cell culture medium (DMEM plus 10% FBS) in 96-well flat-bottom plates and the plate is immediately swirled to ensure proper dispersal of cells, forming an even monolayer of cells. Cells are allowed to attach for at least 4-6 hrs. Test compounds are serially diluted 3.16-fold in 100% DMSO to generate a 7-point concentration curve. A solution of test compound (1 μL, 200× in DMSO) is added to each test well and 1 μL, DMSO is added to each control well. The plate is incubated for 24 hrs in a cell culture incubator (37° C., 5% CO2, 100% relative humidity). The cells are then lysed in Cells-To-Ct lysis buffer and the lysate is stored at −80° C.
SMN2-specific spliced products and GAPDH mRNA are identified using the following primers and probes in Table 5. Primer SMN FL Forward B (SEQ ID NO. 7) hybridizes to a nucleotide sequence in exon 7 (nucleotide 32 to nucleotide 54) and exon 8 (nucleotide 1 to nucleotide 4), primer SMN Δ7 Forward B (SEQ ID NO. 8) hybridizes to a nucleotide sequence in exon 6 (nucleotide 87 to nucleotide 111) and exon 8 (nucleotide 1 to nucleotide 3), primer SMN Reverse B (SEQ ID NO. 9) hybridizes to a nucleotide sequence in exon 8 (nucleotide 39 to nucleotide 62), probe SMN Probe B (SEQ ID NO. 10) hybridizes to a nucleotide sequence in exon 8 (nucleotide 7 to nucleotide 36). These primers and probe hybridize to nucleotide sequences common to human SMN1 and SMN2 mRNAs. Since the SMA patient cells used in Example 3 contain only the SMN2 gene, RT-qPCR can quantify only SMN2 full-length and Δ7 mRNA.
The SMN forward and reverse primers are used at final concentrations of 0.4 μM. The SMN probe is used at a final concentration of 0.15 μM. GAPDH primers are used at final concentrations of 0.1 μM and the probe at 0.075 μM. TaqMan gene expression assays were conducted at 20× concentrations with the GAPDH primers and Vic labeled probe provided as a 20× mixture. The One-Step RT-PCR kit was used as the Real-Time PCR Mix. […]
The increase of SMN2 FL and decrease in SMN2 Δ7 mRNAs relative to those in cells treated with vehicle control are determined from real-time PCR data using a modified ΔΔCt method (as described in Livak and Schmittgen, Methods, 2001, 25:402-8). The amplification efficiency E is calculated from the slope of the amplification curve for SMN2 FL, SMN2 Δ7, and GAPDH individually. The abundances of SMN2 FL, SMN2 Δ7, and GAPDH are then calculated as (1+E)^−Ct, where Ct is the threshold value for each amplicon. […]

[2] = system: full length and Δ7 SMN2 mRNAs; assay: Endogenous SMN2 mRNA end-point semi-quantitative RT-PCR splicing assay in animal tissues; assay type: in vivo, mouse; settings: C/C-allele SMA mice, brain and muscle, oral gavage twice per day for 10 days, agarose gel
Method: The endpoint reverse transcription-PCR (RT-PCR) splicing assay is used to quantify the levels of the full length and Δ7 SMN2 mRNAs in tissues from mice treated with test compound.
Protocol. C/C-allele SMA mice are treated by oral gavage two times per day for 10 days with test compounds in 0.5% HPMC and 0.1% Tween-80. Tissue samples are collected and snap frozen for RNA purification.
Tissue samples (20-40 mg) are homogenized in QIAzol Lysis Reagent for 2 minutes at 20 Hz in the TissueLyser II using one stainless steel bead. After addition of chloroform, the homogenate is separated into aqueous and organic phases by centrifugation. RNA partitioned to the upper, aqueous phase is extracted and ethanol is added to provide appropriate binding conditions. The sample is then applied to the RNeasy spin column from the RNeasy Mini Kit, where total RNA binds to the membrane. The RNA is eluted in RNase-free water then stored at −20° C.
SMN2 spliced products are identified using the following amplification primers in Table 8. These primers hybridize to a nucleotide sequence in exon 6 (SMN Forward D, SEQ ID NO. 13) (nucleotide 22 to nucleotide 46) and exon 8 (SMN Reverse C, SEQ ID NO. 12) common to human SMN1 and SMN2 mRNAs.
To synthesize cDNA, combine 1 μL of RNA solution (25-50 ng), 4 μL of 5× iScript reaction mix, 1 μL of reverse transcriptase, and 10 μL of water are combined and incubates 25° C. for 5 min followed by 42° C. for 30 min followed by 85° C. for 5 min. cDNA solution is stored at −20° C.
To perform endpoint PCR, 5 μL of cDNA, 0.2 μL of 100 μM forward primer, 0.2 μL of 100 μM reverse primer, and 22.5 μL of polymerase super mix are combined in a 96 well semiskirted PCR plate. PCR is carried out at the following temperatures for indicated time: Step 1: 94° C. (2 min), Step 2: 94° C. (30 sec), Step 3: 55° C. (30 sec), Step 4: 68° C. (1 min), then repeat Steps 2 to 4 for a total of 33 cycles, then hold at 4° C.
10 μL of each PCR sample is electrophoretically separated on a 2% agarose E-gel for 14 minutes, stained with ds DNA staining reagents (e.g., ethidium bromide) and visualized using a gel imager.

SMILES | SMN2 FL mRNA relative to vehicle [1] | SMN2 Δ7 mRNA relative to vehicle [1] | SMN2 FL mRNA [2] | SMN2 Δ7 mRNA [2]
CC(C)NCCc1ccc2cc(-c3nc4c(Cl)cccc4s3)c(=O)oc2c1 [Cpd 35, 3-(4-chloro-1,3-benzothiazol-2-yl)-7-[2-(propan-2-ylamino)ethyl]-2H-chromen-2-one] | progressively more SMN2 FL mRNA | less SMN2 Δ7 mRNA | progressively more SMN2 FL mRNA | less SMN2 Δ7 mRNA
CCN1CCN(c2ccc3cc(-c4cn5cc(C)nc(C)c5n4)c(=O)oc3c2)C[C@@H]1C [Cpd 626, 3-(6,8-dimethylimidazo[1,2-a]pyrazin-2-yl)-7-[(3S)-4-ethyl-3-methylpiperazin-1-yl]-2H-chromen-2-one] | progressively more SMN2 FL mRNA | less SMN2 Δ7 mRNA | progressively more SMN2 FL mRNA | less SMN2 Δ7 mRNA
